The values that follow come from publication PMC8116649 (Frontiers in Pharmacology, 2021).

Data set [1] has as its target ethoxyresorufin-O-deethylase. Also on record: method as in Cai et al., 1993. Particulars: mice liver microsomes; ref Cai et al., 1993; cited from earlier work. Background: Microsomes from liver hold many membrane-bound enzymes, among them those of drug oxidation.
For data set [2] the following is noted: cited from earlier work.
Data set [3] has as its target T1, CYP1A2 (Homo sapiens, UniProt P05177).
T1 sequence (P05177 1-516): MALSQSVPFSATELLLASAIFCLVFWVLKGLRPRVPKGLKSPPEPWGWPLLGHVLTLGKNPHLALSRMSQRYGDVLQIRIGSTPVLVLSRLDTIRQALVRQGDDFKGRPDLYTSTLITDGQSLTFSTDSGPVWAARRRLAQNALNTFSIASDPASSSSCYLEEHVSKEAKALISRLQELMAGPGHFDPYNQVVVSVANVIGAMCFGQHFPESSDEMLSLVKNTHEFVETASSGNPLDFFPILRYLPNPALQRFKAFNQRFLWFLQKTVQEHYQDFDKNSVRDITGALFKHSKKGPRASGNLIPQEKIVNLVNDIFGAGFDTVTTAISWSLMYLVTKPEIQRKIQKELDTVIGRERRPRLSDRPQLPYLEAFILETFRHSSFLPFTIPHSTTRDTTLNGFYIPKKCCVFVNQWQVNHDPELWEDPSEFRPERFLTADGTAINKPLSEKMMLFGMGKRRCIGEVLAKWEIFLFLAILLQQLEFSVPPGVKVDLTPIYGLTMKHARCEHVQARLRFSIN
Briefly: Caffeine-N-demethylase assay with 14C-caffeine in human liver microsomes, IC50 determination.
Description: Incubation was conducted at 37°C in a metabolic incubator with a 60 cycles/min shaking rate. At the conclusion of 10 min incubation, the reaction was terminated by the addition of 10% TCA solution (50.0 µl). The incubation mixture was centrifuged at 4,000×g. An aliquot (300.0 µl) of the supernatant was applied to a 3.0 ml Sigma-Aldrich Superclean ENVI-Carbon solid phase extraction (SPE) tube (0.25 g, 80–100 mesh). […] The eluant was collected into a scintillation vial. After the addition of 15.0 ml scintillation cocktail, the radioactivity in the vial was counted in a liquid scintillation counter. The results were expressed as residual counts of the control incubation.
CYP 1A2 activity inhibition was plotted against log furanocoumarin concentration after normalizing the inhibition data from 0–100%. The resulting inhibition-concentration curves were fitted separately to a four-parameter logistic function to determine the IC50 values. Curve fitting was performed using the GraphPad Prism version 5.04 (GraphPad Software, San Diego, CA). The IC50 represented the concentration of the furanocoumarin chemical to evoke a half maximal inhibition of the CYP 1A2 activity.

Data set [4] concerns the target T1, CYP1A2. Briefly: Pre-incubation time- and furanocoumarin concentration-dependent inhibition of caffeine metabolism in HLMs. The following applies: for KI: HLMs 1.2 mg/ml, pre-incubation with NADPH, CYP 1A2 inactivation.
Description: (§1) In the pre-incubation step, HLMs (1.2 mg/ml) were pre-incubated with different furanocoumarin concentrations in the presence of NADPH for various time periods at 37°C. […] The final incubation volume was 320.0 µl. At the conclusion of a 10 min incubation, the reaction was stopped by the addition of a 10% TCA solution. The incubation mixture was extracted by a SPE tube, and the radioactivity in the eluant was counted in a liquid scintillation counter as described earlier.
(§2) The observed in vitro rate constant (kobs) was calculated using the slopes of linear regression analyses from natural logarithm (Ln) percentage remaining activity against pre-incubation time plots. The maximum inactivation rate constant (kinact) was calculated using the non-linear regression analyses of plots of the inactivator concentrations against kobs values. […] The plotting was performed using the GraphPad Prism version 5.04 (GraphPad Software, San Diego, CA).
Data set [5] deals with 7-ethoxycoumarin deethylase. Set-up: method as in Tinel et al., 1987. Particulars: HLMs; ref Tinel et al., 1987; cited from earlier work.
In data set [6] the target is benzo(a)pyrene hydroxylase. Also on record: method as in Tinel et al., 1987. Particulars: HLMs; ref Tinel et al., 1987; cited from earlier work.
The conditions of data set [7]: cited from earlier work. The source holds these as a separate data set.
Data set [8] in a line: Caffeine pharmacokinetics in saliva/plasma of untreated human volunteers (baseline). Type of data set: in vivo. Particulars: caffeine 200 mg single oral dose. On the procedure:
Male human volunteers, between 21 and 30 years old and living in the Metro Vancouver area, were recruited for the study. The volunteers had to meet specific eligibility criteria: not smoking, use medication, consume alcohol heavily or have any health concerns which may affect the test results. […] The participants were also asked to refrain from consuming solid foods 3.0 h prior to the study. The study protocol was approved by the Simon Fraser University Office of Research Ethics with approval number 2012s0565 and registration number ISRCTN83028296.
This study adopted a non-randomized, single-blinded, and crossover design in which each subject acted as their own control ([Sheriffdeen et al., 2019]). […] In the ARFP extract treatment study, the same group of volunteers was used after a 4 days washout period. […] Saliva samples were collected at 0.5, 1.0, 1.5, 2.0, 2.5, 3.0, 4.0, 6.0, 8.0, 12.0, 24.0, 36.0, and 48.0 h post-dosing. All saliva samples were stored in the dark at freezing temperature until they were ready for extraction and HPLC-UV analysis.
The saliva samples were thawed at room temperature, mixed by vortexing for 30 s, and centrifuged for 10 min at 4,000×g. Exactly 200.0 µl aliquot of the saliva sample was removed and spiked with 100.0 µl of the internal standard (ISTD) benzotriazole (50.0 μg/ml). […]
The following pharmacokinetic parameters were determined: the Tmax (time to reach peak plasma level) and Cmax (concentration of peak plasma level) were determined by visual inspection. The AUC0-inf (area under plasma concentration-time curve from zero to infinity) was determined by non-compartmental analysis using the PK Solver software ([Zhang et al., 2010]). The AUC0-inf was determined using the log-linear trapezoidal rule from dosing time to last time point and extrapolated to infinity by dividing the last concentration with the elimination rate constant. The AUC ratio was calculated by dividing the AUC0-inf after ARFP extract pretreatment with the AUC0-inf before ARFP extract pretreatment.

In data set [9] the target is human CYP 1A2 isozyme. Set-up: method as in Kang et al., 2011. The following applies: mechanism-based inhibition; ref Kang et al., 2011; cited from earlier work.
The target in data set [10] is T1, CYP1A2.
Description: as §1, §2
The conditions of data set [11]: rats, cited from earlier work.

Where two headings read alike, the source gives them in different places.

For orientation: IC50 means the concentration that inhibits the measured activity by half. In general, Tmax refers to the time at which the peak concentration occurs. What is called kinact is the rate constant of inactivation at saturating inhibitor. With `COc1c2ccoc2cc2oc(=O)ccc12` [5-MOP, 5-methoxypsoralen], the IC50 is 2.3 µM in data set [1] and 0.13 µM in [3]. For the same compound, the time of peak concentration (Tmax) is 2.8 ± 0.8 h in [2] (PUVA patients, ref Shephard et al., 1999) and 3.0 ± 0.6 h in [2] (healthy humans, ref Stolk et al., 1981). This compound had a KI in data set [4] of 3.73 ± 3.66 µM. Besides, the kinact in [4] (human, human liver microsomes, probe caffeine (6.4 µM non-labeled + 0.2 µCi 14C-caffeine)) was 0.00583 s⁻¹.
For the compound `COc1c2occc2cc2ccc(=O)oc12` [8-MOP, 8-methoxypsoralen], the half-inhibitory concentration (IC50) in [5] and in [6] was around 25 µM throughout. Besides, in data set [4], the KI turned out to be 0.78 ± 0.32 µM.
Broadly, the AUC is concentration integrated over time. A word on the Cmax: it is the maximum level reached in the sampled fluid or tissue. As for `Cn1c(=O)c2c(ncn2C)n(C)c1=O` [Caffeine, caffeine], the AUC in data set [7] (12 human volunteers, 167 mg orally, ref Fuhr et al., 1993) is 28500 ± 14900 ng·h/mL; in data set [7] (healthy volunteers, 5 mg/kg dose, mean ± SD, ref Kamimori et al., 1995), 60800 ± 23700 ng·h/mL. Moreover, the “Time to reach the peak concentration in the blood” value in [7] (single oral dose, ref Tang-Liu et al., 1983) is on record as at most 1.0 h. The “Tmax UT” value in data set [8] (plasma (from saliva), untreated volunteers of the study group of that line) turned out to be 0.8 h. In [8] (male, human, plasma (calculated from saliva concentrations), po, 200 mg, untreated volunteers), the Cmax is 5100 ng/mL. The AUC(0-inf) in data set [8] (male, human, plasma (calculated from saliva concentrations), po, 200 mg, untreated volunteers, read-out: AUC0-inf UT) was 33500 to 55800 ng·h/mL.
`COc1c2ccoc2c(OC)c2oc(=O)ccc12` [ISOP, isopimpinellin]: the IC50 in data set [1] was 1.9 µM; in data set [3], 0.29 µM. For the same compound, the KI in [9] was 1.2 µM; in [10], 4.48 ± 0.56 µM. Also, the maximal inactivation rate constant (kinact) in data set [9] was 0.34 min⁻¹. Further, the time of peak concentration (Tmax) in data set [11] (oral dose of C. monnieri herbal product, ref Li et al., 2014) is 1.1 ± 0.3 h; in data set [11] (oral dose of Toddalia asiatica herbal product, ref Liu et al., 2012) it was 1.3 ± 0.3 h.
